PMC7083800, “Production and characterization of Aspergillus niger GH29 family α-fucosidase and production of a novel non-reducing 1-fucosyllactose” (Glycoconjugate Journal, 2019)

Tested on: T1, A. niger GH29 α-fucosidase (long version, pPFucA-L)
T1 construct: gene FucA; C-terminal His-tag kept; codon-optimized, secreted from Pichia pastoris
Assay: pNP release, absorbance at […] nm
Assay type: biochemical, Aspergillus niger
Details: 50 mM Na-acetate buffer assay, pH 3.6, 45 °C; 0.05-3 mM substrate; read-out: apparent Km

Compound: C[C@@H]1O[C@@H](Oc2ccc([N+](=O)[O-])cc2)[C@@H](O)[C@H](O)[C@@H]1O [pNP-fucose, 4-Nitrophenyl α-L-fucopyranoside]
- Km: 390 µM
